Entries after “also recorded” stand apart in the source; their conditions may differ. Numbered stars: 1 amine (or outer) side, 2 acyl side, 3 side chain; on linkers, the order of the positions; unused ones are H or OH. Square brackets hold non-standard residues; d marks the D form. Peptide text beside a SMILES is read from it. dAla(ψthiazole) = C[C@@H](N[*:1])c1nc(C(=O)[*:2])cs1; Trp(4-OMe) = COc1cccc2[nH]cc(C[C@H](N)C(=O)O)c12; Dha = C=C(N)C(=O)O; Sar = CNCC(=O)O
Columns and labels:
[1] = test system: primary human fibroblasts; test: Flow cytometry cell cycle / sub-G1 analysis; type: cell-based; settings: at ranges of IC50
Description: The expression levels of p27^kip1 were determined at the indicated timepoints by western blotting and normalized against actin expression which was used as an internal control.
MTT assays were done as previously described (Sasse, F. et al. Argyrins, immunosuppressive cyclic peptides from myxobacteria. I. Production, isolation, physico-chemical and biological properties. J Antibiot (Tokyo) 55, 543-51 (2002)). TUNEL staining of tissue sections was performed on 10 micrometer sections which were deparafinised and treated as recommended by the manufacturer. (In Situ Cell Death Detection Kit, Fluorescein; ROCHE, Cat #11 684 795 910). Flow cytometric analysis of cultured cells was done using a Becton Dickinson fluorescence cytometer as previously described (Malek, N. P. et al. A mouse knock-in model exposes sequential proteolytic pathways that regulate p27^Kip1 in G1 and S phase. Nature 413, 323-7 (2001)). Analysis of the distribution of cells in the cell cycle and the sub-G1 fraction was done using Cell Quest software. A histone-associated-DNA-fragments ELISA was used to determine the number of apoptotic cells according to manufacturers instructions (Roche #11 774425001).

[2] = test system: CD31 positive endothelial cells in tumour tissues (SW480 or HCT116); test: Microvessel density (CD31) in tumour tissue after single injection; type: in vivo, mouse
Description: This phenotype is often observed with drugs which interfere with blood vessel formation or compounds which directly damage existing tumour vessels. […] This reduction in tumour vasculature was paralleled by an induction of p27^kip1 expression in the CD31 positive endothelial cells. (FIG. 7A). To understand this phenotype in more detail the inventors analyzed primary tumour material by electronic microscopy. As early as 90 minutes after injection the inventors observed swelling of endothelial cell which was followed by a loss of basal membrane attachment and cell-cell contacts (FIG. 4D) in the tumour vasculature. As a result of the apparent loss of cell and basal membrane attachment after Argyrin A treatment many of the examined tumour blood vessels were occluded with endothelial cells or erythrocytes. The destruction of the tumour core which the inventors observed after Argyrin A treatment might therefore be a result of thrombotic occlusion of the affected blood vessels. In contrast the bortezomib induced reduction in CD31 positive cells correlated with the appearance of necrotic endothelial cells (FIG. 4D).
(§1) Treatment with Argyrin A or bortezomib was started when these tumours reached a volume of 200 mm3. […] (n=8 Argyrin A, n=8 Bortezomib, n=6 PBS/EtOH) b) The pictures show the macroscopic appearance of a xenotransplant tumour after 10 days of treatment with Argyrin A. Note the large necrotic centre of the explanted tumour. c) After a single injection of Argyrin A (0.15 mg/kg bodyweight) or bortezomib (1.0 mg/kg bodyweight) tumours were explanted at the indicated time points and blood vessels in the tumour tissue were co-stained for CD31 and p27. […] Note the swelling of the endothelial cell (“E”) and the occlusion of the lumen (“L”) by erythrocytes after 90 minutes of Argyrin A treatment. The arrow marks the detachment of endothelial cells after 48 h of Argyrin A treatment. […] Tube length (f) and blood vessel like […] structures were determined using photographs of HUVEC cultures. The micrographs show representative examples of HUVEC cultures under the indicated conditions.
Immunohistochemical staining of mouse tumour tissue, western Blotting and immunofluorescence experiments were done as previously described (Timmerbeul, I. et al. Testing the importance of p27 degradation by the SCFskp2 pathway in murine models of lung and colon cancer. Proc Natl Acad Sci USA 103, 14009-14 (2006). Kossatz, U. et al. C-terminal phosphorylation controls the stability and function of p27^kip1. Embo J 25, 5159-70 (2006).). […]

[3] = Body weight and tolerability of treated tumour bearing mice; type: in vivo
[4] = test system: HUVEC; test: In vitro capillary-like tube structure formation on matrigel; type: cell-based, human
Excerpt: The inventors then asked whether Argyrin A was also able to prevent the formation of capillary like tube structures formed by HUVEC on matrigel, an assay frequently used to test the ability of a compound to interfere with neovascularization. […] The addition of Argyrin A led to a 40% reduction in tube formation in this assay. Importantly transfection of siRNA against p27 protected endothelial cells against the inhibitory activity of Argyrin A. The effects exerted by Bortezomib in this assay were smaller and not rescued by loss of p27. In addition to tube length the inventors also quantitated the number of blood vessel like structures formed by HUVECS after treatment with Argyrin A or bortezomib (FIG. 4F).
as §1
Primary microvascular endothelial cells (HMVEC) were isolated from human foreskin. The cells were kept at 37° C. and 10% CO2 in EGM-2 MV from Cambrex which includes the basal medium (EBM-2), FBS, hydrocortisone, hFGF-B, VEGF, R3-IGF, ascorbic acid, hEGF, gentamicin and amphotericin. The effect of argyrin A or bortezomib on in vitro angiogenesis was determined by matrigel capillary-like tube structure formation assay. To examine the effect of the different compounds on in vitro angiogenesis, HMVECs were seeded in 96-well culture plates precoated with Matrigel (BD Biosciences, #354248) and exposed to argyrin A or bortezomib. Enclosed networks of tube structures from three randomly chosen fields were scored under the microscope (Leica, Cambridge, United Kingdom). Pictures were taken with an Axio Vision 3.1 Zeiss camera and scored by determining tube length and the formation of closed vessel like structures.

[5] = Argyrin A 1 μM, bortezomib 10 nM

Row | SMILES | cellular phenotype [1] | CD31 positive cells remaining ([2]; 72 hours after injection) | number of CD31 positive endothelial cells ([2]; single injection) | start of reduction of CD31 positive endothelial cells after injection ([2]; single injection) [min] | discomfort, weight loss, disease / tolerability [3] | number of blood vessel like structures [4, 5] | reduction in tube formation (relative length of capillary tubes) ([4]; VEGF stimulation, Argyrin A 1 μM) [%] | effect on tube formation compared with Argyrin A ([4]; bortezomib 10 nM)
1 | C=C1NC(=O)[C@@H](C)NC(=O)CNC(=O)[C@H](Cc2c[nH]c3cccc(OC)c23)NC(=O)[C@H](Cc2c[nH]c3ccccc23)NC(=O)c2csc(n2)[C@@H](C)NC(=O)CN(C)C1=O [Argyrin A] (cyclo(W[Trp(4-OMe)]G[dA][Dha][Sar][dAla(ψthiazole)])) | stopped to proliferate | about 10% | significant reduction | ≥ 90 | very well tolerated; also recorded: did not observe any signs of discomfort, weight loss | significant reduction | 40 | 
2 | CC(C)C[C@H](NC(=O)[C@H](Cc1ccccc1)NC(=O)c1cnccn1)B(O)O [bortezomib, reference compound] |  |  | reduction |  |  | significant reduction |  | smaller
